Measured values from patent publication US9200008B2 (ASKA PHARMACEUTICAL CO., LTD., priority 2010, dated 2015).

System: Human prostate cancer cell lines (PC-3 cells)
Assay: Measurement of cell death-inducing activity (Test Example 1)
Type: cell-based
Conditions: PC-3, 48 h, 48 hours after addition, tested at 10, 1, 0.1, 0.025 and 0.00625 μmol/L, qualitative evaluation of 10 fields, read-out: Concentration showing the cell death-inducing activity (cell death-inducing rate not less than 40%)
In short: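 PC-3 cells seeded at 1×10^5 cells/well and grown 48 h at 37 °C, 5% CO2, then exposed to compound at 10, 1, 0.1, 0.025 and 0.00625 μmol/L (DMSO control) for a further 48 h. Activity was called where cell death-inducing rate was not less than 40%.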

Structure (SMILES)	minimal effective concentration
CCn1nc(-c2ccc(F)cc2OC)cc1NC(=O)OCc1ccc2c(c1)ncn2C [Example 9-218]	0.025 µM
CCn1cnc2cc(COC(=O)Nc3cc(-c4ccc(F)cc4OC)nn3C)ccc21 [Example 9-219]	0.025 µM
CCn1nc(-c2ccc(F)cc2OC)cc1NC(=O)OCc1ccc2c(c1)ncn2CC [Example 9-220]	0.1 µM
COc1cc(Cl)ccc1-c1cc(NC(=O)OCc2ccc3c(c2)ncn3C)n(C)n1 [Example 9-221]	0.00625 µM
CCn1nc(-c2ccc(Cl)cc2OC)cc1NC(=O)OCc1ccc2c(c1)ncn2C [Example 9-222]	0.00625 µM
CCn1cnc2cc(COC(=O)Nc3cc(-c4ccc(Cl)cc4OC)nn3C)ccc21 [Example 9-223]	0.00625 µM
CCn1nc(-c2ccc(Cl)cc2OC)cc1NC(=O)OCc1ccc2c(c1)ncn2CC [Example 9-224]	0.00625 µM
COc1cc(C)ccc1-c1cc(NC(=O)OCc2ccc3c(c2)ncn3C)n(C)n1 [Example 9-226]	0.00625 µM
CCn1nc(-c2ccc(C)cc2OC)cc1NC(=O)OCc1ccc2c(c1)ncn2C [Example 9-227]	0.00625 µM
CCn1cnc2cc(COC(=O)Nc3cc(-c4ccc(C)cc4OC)nn3C)ccc21 [Example 9-228]	0.00625 µM
CCn1nc(-c2ccc(C)cc2OC)cc1NC(=O)OCc1ccc2c(c1)ncn2CC [Example 9-229]	0.025 µM
COc1ccc(-c2cc(NC(=O)OCc3ccc4c(c3)ncn4C)n(C)n2)c(OC)c1 [Example 9-230]	0.025 µM
COc1ccc(-c2cc(NC(=O)OCc3ccc4c(c3)ncn4C)n(C)n2)cc1OC [Example 9-231]	1 µM
Cc1ccc(-c2cc(NC(=O)OCc3ccc4c(c3)ncn4C)n(C)n2)c(C)c1 [Example 9-233]	0.00625 µM
CCn1nc(-c2ccc(C)cc2C)cc1NC(=O)OCc1ccc2c(c1)ncn2C [Example 9-234]	0.025 µM
CCn1cnc2cc(COC(=O)Nc3cc(-c4ccc(C)cc4C)nn3C)ccc21 [Example 9-235]	0.00625 µM
CCn1nc(-c2ccc(C)cc2C)cc1NC(=O)OCc1ccc2c(c1)ncn2CC [Example 9-236]	0.1 µM
Cc1ccccc1-c1cc(NC(=O)OCc2ccc3c(c2)nc(C)n3C)n(C)n1 [Example 9-238]	10 µM
COc1cc(Cl)ccc1-c1cc(NC(=O)OCc2ccc3c(c2)nc(C)n3C)n(C)n1 [Example 9-239]	0.025 µM
CCn1nc(-c2ccc(C)cc2C)cc1NC(=O)OCc1ccc2c(c1)nc(C)n2C [Example 9-240]	1 µM
CCc1nc2cc(COC(=O)Nc3cc(-c4ccc(Cl)cc4Cl)nn3C)ccc2n1C [Example 9-241]	10 µM
CCc1nc2cc(COC(=O)Nc3cc(-c4ccc(Cl)cc4OC)nn3C)ccc2n1C [Example 9-242]	0.1 µM
COc1ccccc1-c1cc(NC(=O)OCc2ccc3c(c2)nc2n3CCOC2)n(C)n1 [Example 9-243]	0.1 µM
CCn1nc(-c2ccccc2OC)cc1NC(=O)OCc1ccc2c(c1)nc1n2CCOC1 [Example 9-244]	1 µM

Structure (SMILES)	minimal effective concentration
COc1cc(F)ccc1-c1cc(NC(=O)OCc2ccc3c(c2)nc2n3CCOC2)n(C)n1 [Example 9-245]	0.025 µM
CCn1nc(-c2ccc(F)cc2OC)cc1NC(=O)OCc1ccc2c(c1)nc1n2CCOC1 [Example 9-246]	0.1 µM
COc1cc(Cl)ccc1-c1cc(NC(=O)OCc2ccc3c(c2)nc2n3CCOC2)n(C)n1 [Example 9-247]	0.00625 µM
CCn1nc(-c2ccc(Cl)cc2OC)cc1NC(=O)OCc1ccc2c(c1)nc1n2CCOC1 [Example 9-248]	0.025 µM
COc1cc(C)ccc1-c1cc(NC(=O)OCc2ccc3c(c2)nc2n3CCOC2)n(C)n1 [Example 9-249]	0.00625 µM
CCn1nc(-c2ccc(C)cc2OC)cc1NC(=O)OCc1ccc2c(c1)nc1n2CCOC1 [Example 9-250]	0.025 µM
Cc1ccc(-c2cc(NC(=O)OCc3ccc4c(c3)nc3n4CCOC3)n(C)n2)c(C)c1 [Example 9-251]	0.025 µM
CCn1nc(-c2ccc(C)cc2C)cc1NC(=O)OCc1ccc2c(c1)nc1n2CCOC1 [Example 9-252]	0.1 µM
Cc1cc(F)ccc1-c1cc(NC(=O)OCc2ccc3c(c2)nc2n3CCOC2)n(C)n1 [Example 9-253]	0.1 µM
COc1ccccc1-c1cc(NC(=O)OCc2ccc3c(c2)nc2n3CCC2)n(C)n1 [Example 9-254]	1 µM
CCn1nc(-c2ccccc2OC)cc1NC(=O)OCc1ccc2c(c1)nc1n2CCC1 [Example 9-255]	1 µM
COc1cc(F)ccc1-c1cc(NC(=O)OCc2ccc3c(c2)nc2n3CCC2)n(C)n1 [Example 9-256]	0.1 µM
CCn1nc(-c2ccc(F)cc2OC)cc1NC(=O)OCc1ccc2c(c1)nc1n2CCC1 [Example 9-257]	0.1 µM
COc1cc(Cl)ccc1-c1cc(NC(=O)OCc2ccc3c(c2)nc2n3CCC2)n(C)n1 [Example 9-258]	0.025 µM
CCn1nc(-c2ccc(Cl)cc2OC)cc1NC(=O)OCc1ccc2c(c1)nc1n2CCC1 [Example 9-259]	0.025 µM
Cc1ccc(-c2cc(NC(=O)OCc3ccc4c(c3)nc3n4CCC3)n(C)n2)c(C)c1 [Example 9-260]	0.025 µM
COc1cc(C)ccc1-c1cc(NC(=O)OCc2ccc3c(c2)nc2n3CCC2)n(C)n1 [Example 9-261]	0.025 µM
CCn1nc(-c2ccc(C)cc2OC)cc1NC(=O)OCc1ccc2c(c1)nc1n2CCC1 [Example 9-262]	0.025 µM
COc1ccccc1-c1cc(NC(=O)OCc2ccc3c(c2)nc2n3CCCC2)n(C)n1 [Example 9-263]	1 µM
CCn1nc(-c2ccccc2OC)cc1NC(=O)OCc1ccc2c(c1)nc1n2CCCC1 [Example 9-264]	1 µM
COc1cc(F)ccc1-c1cc(NC(=O)OCc2ccc3c(c2)nc2n3CCCC2)n(C)n1 [Example 9-265]	1 µM
CCn1nc(-c2ccc(F)cc2OC)cc1NC(=O)OCc1ccc2c(c1)nc1n2CCCC1 [Example 9-266]	1 µM
COc1cc(Cl)ccc1-c1cc(NC(=O)OCc2ccc3c(c2)nc2n3CCCC2)n(C)n1 [Example 9-267]	0.025 µM
CCn1nc(-c2ccc(Cl)cc2OC)cc1NC(=O)OCc1ccc2c(c1)nc1n2CCCC1 [Example 9-268]	0.1 µM

Structure (SMILES)	minimal effective concentration
COc1cc(C)ccc1-c1cc(NC(=O)OCc2ccc3c(c2)nc2n3CCCC2)n(C)n1 [Example 9-269]	0.1 µM
CCn1nc(-c2ccc(C)cc2OC)cc1NC(=O)OCc1ccc2c(c1)nc1n2CCCC1 [Example 9-270]	0.1 µM
Cc1ccc(-c2cc(NC(=O)OCc3ccc4c(c3)nc3n4CCCC3)n(C)n2)c(C)c1 [Example 9-271]	0.1 µM
COCCn1cnc2cc(COC(=O)Nc3cc(-c4ccc(Cl)cc4OC)nn3C)ccc21 [Example 9-273]	10 µM
COCc1nc2cc(COC(=O)Nc3cc(-c4ccc(Cl)cc4OC)nn3C)ccc2n1C [Example 9-274]	1 µM
Cn1nc(-c2ccc(Cl)cc2Cl)cc1NC(=O)OCc1ccc2c(cnn2C)c1 [Example 9-275]	1 µM
CCn1nc(-c2ccc(Cl)cc2Cl)cc1NC(=O)OCc1ccc2c(cnn2C)c1 [Example 9-276]	1 µM
Cc1ccccc1-c1cc(NC(=O)OCc2ccc3c(cnn3C)c2)n(C)n1 [Example 9-277]	10 µM
Cn1nc(-c2ccccc2C(F)(F)F)cc1NC(=O)OCc1ccc2c(cnn2C)c1 [Example 9-278]	10 µM
CCn1nc(-c2ccc(F)cc2OC)cc1NC(=O)OCc1ccc2c(cnn2C)c1 [Example 9-279]	1 µM
COc1cc(Cl)ccc1-c1cc(NC(=O)OCc2ccc3c(cnn3C)c2)n(C)n1 [Example 9-280]	0.00625 µM
CCn1nc(-c2ccc(Cl)cc2OC)cc1NC(=O)OCc1ccc2c(cnn2C)c1 [Example 9-281]	0.025 µM
COc1cc(C)ccc1-c1cc(NC(=O)OCc2ccc3c(cnn3C)c2)n(C)n1 [Example 9-283]	0.025 µM
CCn1nc(-c2ccc(C)cc2OC)cc1NC(=O)OCc1ccc2c(cnn2C)c1 [Example 9-284]	0.1 µM
Cc1ccc(-c2cc(NC(=O)OCc3ccc4c(cnn4C)c3)n(C)n2)c(C)c1 [Example 9-285]	0.1 µM
CCn1nc(-c2ccc(C)cc2C)cc1NC(=O)OCc1ccc2c(cnn2C)c1 [Example 9-286]	0.1 µM
COc1ccccc1-c1cc(NC(=O)OCc2ccc3nn(C)cc3c2)n(C)n1 [Example 9-288]	1 µM
CCn1nc(-c2ccccc2OC)cc1NC(=O)OCc1ccc2nn(C)cc2c1 [Example 9-289]	1 µM
COc1cc(F)ccc1-c1cc(NC(=O)OCc2ccc3nn(C)cc3c2)n(C)n1 [Example 9-290]	0.1 µM
COc1cc(Cl)ccc1-c1cc(NC(=O)OCc2ccc3nn(C)cc3c2)n(C)n1 [Example 9-291]	0.025 µM
CCn1nc(-c2ccc(Cl)cc2OC)cc1NC(=O)OCc1ccc2nn(C)cc2c1 [Example 9-292]	0.025 µM
COc1cc(C)ccc1-c1cc(NC(=O)OCc2ccc3nn(C)cc3c2)n(C)n1 [Example 9-293]	0.1 µM
COc1ccc(-c2cc(NC(=O)OCc3ccc4nn(C)cc4c3)n(C)n2)c(OC)c1 [Example 9-294]	1 µM
Cc1ccc(-c2cc(NC(=O)OCc3ccc4nn(C)cc4c3)n(C)n2)c(C)c1 [Example 9-295]	0.1 µM
